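Tested at 5 concentrations; 48 h exposure; 96-well plates; endpoints linearly interpolated, else capped at highest concentration. GI50 = concentration required for 50% inhibition of growth.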 Active and inactive are the calls of the source. Rule as the data show it: active = GI50 up to about 1.1 µM and inactive = higher.
What was measured:
Experiment in all cases: inhibition of tumour cell growth, NCI panel, 48 h
786-0 = test system: 786-0
A549 = test system: A549
ACHN = test system: ACHN
CCRF-CEM = test system: CCRF-CEM
COLO 205 = test system: COLO 205
DLD-1 = test system: DLD-1
DMS-114 = test system: DMS-114
DMS-273 = test system: DMS-273
EKVX = test system: EKVX
HCC 2998 = test system: HCC 2998
HCT-116 = test system: HCT-116
HCT-15 = test system: HCT-15
HL-60 = test system: HL-60
HOP-62 = test system: HOP-62
HOP-92 = test system: HOP-92
HT-29 = test system: HT-29
IGROV-1 = test system: IGROV-1
K562 = test system: K562
KM-20L2 = test system: KM-20L2
KM12 = test system: KM12
LOX IMVI = test system: LOX IMVI
M14 = test system: M14
M19-MEL = test system: M19-MEL
MOLT-4 = test system: MOLT-4
Malme-3M = test system: Malme-3M
NCI-H23 = test system: NCI-H23
NCI-H460 = test system: NCI-H460
NCI-H522 = test system: NCI-H522
OVCAR-3 = test system: OVCAR-3
OVCAR-4 = test system: OVCAR-4
OVCAR-5 = test system: OVCAR-5
OVCAR-8 = test system: OVCAR-8
RPMI-8226 = test system: RPMI-8226
RXF 393 = test system: RXF 393
SF-268 = test system: SF-268
SF-295 = test system: SF-295
SF-539 = test system: SF-539
SK-MEL-28 = test system: SK-MEL-28
SK-MEL-2 = test system: SK-MEL-2
SK-MEL-5 = test system: SK-MEL-5
SN12C = test system: SN12C
SNB-19 = test system: SNB-19
SNB-75 = test system: SNB-75
SW-620 = test system: SW-620
TK-10 = test system: TK-10
U-251 = test system: U-251
UACC-257 = test system: UACC-257
UACC-62 = test system: UACC-62
UO-31 = test system: UO-31
XF498 = test system: XF498
A498 = test system: A498
CAKI-1 = test system: CAKI-1
LXFL 529 = test system: LXFL 529
NCI-H226 = test system: NCI-H226
SK-OV-3 = test system: SK-OV-3
SNB-78 = test system: SNB-78
SR = test system: SR

SMILES: C#CN1C(=O)c2c(c(-c3ccccc3)c(-c3ccc(Oc4ccc(-c5c(-c6ccccc6)c6c(c(-c7ccccc7)c5-c5ccccc5)C(=O)N(C#C)C6=O)cc4)cc3)c(-c3ccccc3)c2-c2ccccc2)C1=O
- GI50 (786-0): > 100 µM (inactive)
- GI50 (A549): > 100 µM (inactive)
- GI50 (ACHN): > 100 µM (inactive)
- GI50 (CCRF-CEM): > 100 µM (inactive)
- GI50 (COLO 205): > 100 µM (inactive)
- GI50 (DLD-1): > 100 µM (inactive)
- GI50 (DMS-114): > 100 µM (inactive)
- GI50 (DMS-273): > 100 µM (inactive)
- GI50 (EKVX): > 100 µM (inactive)
- GI50 (HCC 2998): > 100 µM (inactive)
- GI50 (HCT-116): > 100 µM (inactive)
- GI50 (HCT-15): 30.8 µM
- GI50 (HL-60): > 100 µM (inactive)
- GI50 (HOP-62): > 100 µM (inactive)
- GI50 (HOP-92): 21.9 µM (inactive)
- GI50 (HT-29): > 100 µM (inactive)
- GI50 (IGROV-1): 72.6 µM (inactive)
- GI50 (K562): > 100 µM (inactive)
- GI50 (KM-20L2): > 100 µM (inactive)
- GI50 (KM12): > 100 µM (inactive)
- GI50 (LOX IMVI): > 100 µM (inactive)
- GI50 (M14): 80.7 µM (inactive)
- GI50 (M19-MEL): > 100 µM (inactive)
- GI50 (MOLT-4): > 100 µM (inactive)
- GI50 (Malme-3M): > 100 µM (inactive)
- GI50 (NCI-H23): > 100 µM (inactive)
- GI50 (NCI-H460): > 100 µM (inactive)
- GI50 (NCI-H522): > 100 µM (inactive)
- GI50 (OVCAR-3): > 100 µM (inactive)
- GI50 (OVCAR-4): > 100 µM (inactive)
- GI50 (OVCAR-5): > 100 µM (inactive)
- GI50 (OVCAR-8): > 100 µM (inactive)
- GI50 (RPMI-8226): > 100 µM (inactive)
- GI50 (RXF 393): 30.8 µM (inactive)
- GI50 (SF-268): > 100 µM (inactive)
- GI50 (SF-295): > 100 µM (inactive)
- GI50 (SF-539): > 100 µM (inactive)
- GI50 (SK-MEL-28): > 100 µM (inactive)
- GI50 (SK-MEL-2): > 100 µM (inactive)
- GI50 (SK-MEL-5): > 100 µM (inactive)
- GI50 (SN12C): 30.1 µM (inactive)
- GI50 (SNB-19): > 100 µM (inactive)
- GI50 (SNB-75): > 100 µM (inactive)
- GI50 (SW-620): > 100 µM (inactive)
- GI50 (TK-10): > 100 µM (inactive)
- GI50 (U-251): > 100 µM (inactive)
- GI50 (UACC-257): > 100 µM (inactive)
- GI50 (UACC-62): > 100 µM (inactive)
- GI50 (UO-31): > 100 µM (inactive)
- GI50 (XF498): 23.2 µM (inactive)

SMILES: COc1cc(C=O)c(-c2cc3c(cc2C2(C)OCCS2)OCO3)c(OC)c1OC (stereo not drawn)
- GI50 (786-0): 7.4 µM (inactive)
- GI50 (A498): 7.85 µM (inactive)
- GI50 (A549): 8.71 µM (inactive)
- GI50 (ACHN): 18.5 µM (inactive)
- GI50 (CAKI-1): 11.6 µM (inactive)
- GI50 (CCRF-CEM): 7.59 µM (inactive)
- GI50 (COLO 205): 4.24 µM (inactive)
- GI50 (DLD-1): 16.7 µM (inactive)
- GI50 (DMS-114): 17.5 µM (inactive)
- GI50 (DMS-273): 10.3 µM (inactive)
- GI50 (EKVX): 19.7 µM (inactive)
- GI50 (HCC 2998): 16.4 µM (inactive)
- GI50 (HCT-116): 8 µM (inactive)
- GI50 (HCT-15): 8.22 µM
- GI50 (HL-60): 8.07 µM (inactive)
- GI50 (HOP-62): 15.5 µM (inactive)
- GI50 (HOP-92): 14.8 µM (inactive)
- GI50 (HT-29): 6.68 µM (inactive)
- GI50 (IGROV-1): 28.2 µM (inactive)
- GI50 (K562): 8.83 µM (inactive)
- GI50 (KM-20L2): 4.08 µM (inactive)
- GI50 (KM12): 9.53 µM (inactive)
- GI50 (LOX IMVI): 9.12 µM (inactive)
- GI50 (LXFL 529): 17.6 µM (inactive)
- GI50 (M14): 5.73 µM (inactive)
- GI50 (MOLT-4): 12.5 µM (inactive)
- GI50 (Malme-3M): 12 µM (inactive)
- GI50 (NCI-H226): 6.32 µM (inactive)
- GI50 (NCI-H23): 21.9 µM (inactive)
- GI50 (NCI-H460): 18.9 µM (inactive)
- GI50 (NCI-H522): 6.08 µM (inactive)
- GI50 (OVCAR-3): 5.14 µM (inactive)
- GI50 (OVCAR-4): 17.9 µM (inactive)
- GI50 (OVCAR-5): 50 µM (inactive)
- GI50 (OVCAR-8): 19.1 µM (inactive)
- GI50 (RPMI-8226): 11.4 µM (inactive)
- GI50 (RXF 393): 7.38 µM (inactive)
- GI50 (SF-268): 36.5 µM (inactive)
- GI50 (SF-295): 13.3 µM (inactive)
- GI50 (SF-539): 5.85 µM (inactive)
- GI50 (SK-MEL-28): 4.4 µM (inactive)
- GI50 (SK-MEL-2): 11.4 µM (inactive)
- GI50 (SK-MEL-5): 9.14 µM (inactive)
- GI50 (SK-OV-3): 13.6 µM (inactive)
- GI50 (SN12C): 13.5 µM (inactive)
- GI50 (SNB-19): 30.2 µM (inactive)
- GI50 (SNB-75): 7.89 µM (inactive)
- GI50 (SNB-78): 8.65 µM (inactive)
- GI50 (SR): 14.1 µM (inactive)
- GI50 (SW-620): 7.94 µM (inactive)
- GI50 (TK-10): 57.8 µM (inactive)
- GI50 (U-251): 15.5 µM (inactive)
- GI50 (UACC-257): 8.83 µM (inactive)
- GI50 (UACC-62): 12.6 µM (inactive)
- GI50 (UO-31): 14.1 µM (inactive)
- GI50 (XF498): 9.66 µM (inactive)

SMILES: CC1=NN(C(=O)c2ccc(Cl)cc2)C(=O)/C1=C/c1c(O)cc(O)c2ccccc12
- GI50 (786-0): > 100 µM (inactive)
- GI50 (A498): > 100 µM (inactive)
- GI50 (A549): > 100 µM (inactive)
- GI50 (ACHN): > 100 µM (inactive)
- GI50 (CAKI-1): > 100 µM (inactive)
- GI50 (CCRF-CEM): > 100 µM (inactive)
- GI50 (COLO 205): > 100 µM (inactive)
- GI50 (DLD-1): > 100 µM (inactive)
- GI50 (DMS-114): > 100 µM (inactive)
- GI50 (EKVX): > 100 µM (inactive)
- GI50 (HCC 2998): > 100 µM (inactive)
- GI50 (HCT-116): > 100 µM (inactive)
- GI50 (HL-60): > 100 µM (inactive)
- GI50 (HOP-62): > 100 µM (inactive)
- GI50 (HOP-92): > 100 µM (inactive)
- GI50 (HT-29): > 100 µM (inactive)
- GI50 (IGROV-1): > 100 µM (inactive)
- GI50 (K562): > 100 µM (inactive)
- GI50 (KM-20L2): > 100 µM (inactive)
- GI50 (KM12): > 100 µM (inactive)
- GI50 (LOX IMVI): > 100 µM (inactive)
- GI50 (LXFL 529): > 100 µM (inactive)
- GI50 (M14): > 100 µM (inactive)
- GI50 (M19-MEL): > 100 µM (inactive)
- GI50 (MOLT-4): > 100 µM (inactive)
- GI50 (Malme-3M): > 100 µM (inactive)
- GI50 (NCI-H23): > 100 µM (inactive)
- GI50 (NCI-H460): > 100 µM (inactive)
- GI50 (NCI-H522): > 100 µM (inactive)
- GI50 (OVCAR-3): > 100 µM (inactive)
- GI50 (OVCAR-4): > 100 µM (inactive)
- GI50 (OVCAR-5): > 100 µM (inactive)
- GI50 (OVCAR-8): > 100 µM (inactive)
- GI50 (RPMI-8226): > 100 µM (inactive)
- GI50 (RXF 393): > 100 µM (inactive)
- GI50 (SF-268): > 100 µM (inactive)
- GI50 (SF-295): > 100 µM (inactive)
- GI50 (SF-539): > 100 µM (inactive)
- GI50 (SK-MEL-28): > 100 µM (inactive)
- GI50 (SK-MEL-2): > 100 µM (inactive)
- GI50 (SK-MEL-5): > 100 µM (inactive)
- GI50 (SK-OV-3): > 100 µM (inactive)
- GI50 (SN12C): > 100 µM (inactive)
- GI50 (SNB-19): > 100 µM (inactive)
- GI50 (SNB-78): > 100 µM (inactive)
- GI50 (SW-620): > 100 µM (inactive)
- GI50 (TK-10): > 100 µM (inactive)
- GI50 (U-251): > 100 µM (inactive)
- GI50 (UACC-257): > 100 µM (inactive)
- GI50 (UACC-62): > 100 µM (inactive)
- GI50 (UO-31): > 100 µM (inactive)
- GI50 (XF498): > 100 µM (inactive)

— ChEMBL document CHEMBL1201862, “PubChem BioAssay data set” (2004)
